Measurements reported in PMC6678253, “The 1,3,5-Triazine Derivatives as Innovative Chemical Family of 5-HT6 Serotonin Receptor Agents with Therapeutic Perspectives for Cognitive Impairment” (International Journal of Molecular Sciences, 2019).
Like-named read-outs stand apart in the source and are kept apart here.

Columns and labels:
[1] = Metabolic stability in human liver microsomes (HLMs); conditions: for Clint: HLMs 1 mg/mL, 50 µM compound, Clint ≤ 8.6 = low clearance; for half-life at 50 µM: human, human liver microsomes
Method: The t1/2 values and intrinsic clearances (Clint) were calculated using IS by protocols and formulas proposed by Obach [30].

P-glycoprotein (Pgp) = P-glycoprotein (Pgp) (Homo sapiens, UniProt P08183); assay: Luminescent Pgp-Glo Assay System; conditions: 100 μM, 40 min, 37 °C; for Pgp basal activity: > 100% = substrate, increase statistically insignificant
Method: Moreover, the luminescence Pgp-Glo™ Assay was used in order to determine their influence on P-glycoprotein (Pgp) activity, the main efflux pump in the transport across blood–brain barrier (BBB) and the intestinal epithelium.
The luminescent Pgp-Glo™ Assay System used for determination of 5HT6R ligands’ influence on P-glycoprotein activity was purchased from Promega (Madison, WI, USA). […] The luminescence signal was measured by microplate reader EnSpire PerkinElmer (Waltham, MA, USA).

D2L [2] = molecular target: T1, D2L (Homo sapiens, UniProt P14416); parameters: method as in PMID 28441580, PMID 30530073, PMID 31229876; conditions: human receptor stably expressed in HEK-293; determined previously; read-out: Ki D2L [3H]-Raclopride; cited from earlier work
T1 construct: expressed in transfected cells; host or cells: HEK-293

5-HT7 [3] = molecular target: T2, 5-HT7 (Homo sapiens, UniProt P34969); parameters: method as in PMID 28441580, PMID 30530073, PMID 31229876; conditions: human receptor stably expressed in HEK-293; determined previously; read-out: Ki 5-HT7 [3H]-5-CT; cited from earlier work
T2 construct: expressed in transfected cells; host or cells: HEK-293

[4] = Parallel artificial membrane permeability assay (PAMPA); format: in vitro ADME; conditions: PBS pH 7.4, 5 h, room temperature, breakpoint for permeable compounds Pe ≥ 1.5 × 10^−6 cm/s, read-out: Pe (permeability coefficient) ± SD
5-HT1A [5] = molecular target: T3, 5-HT1A (Homo sapiens, UniProt P08908); parameters: method as in PMID 28441580, PMID 30530073, PMID 31229876; conditions: human receptor stably expressed in HEK-293; determined previously; read-out: Ki 5-HT1A [3H]-8-OH-DPAT; cited from earlier work
T3 construct: expressed in transfected cells; host or cells: HEK-293
T3 sequence (P08908 1-422): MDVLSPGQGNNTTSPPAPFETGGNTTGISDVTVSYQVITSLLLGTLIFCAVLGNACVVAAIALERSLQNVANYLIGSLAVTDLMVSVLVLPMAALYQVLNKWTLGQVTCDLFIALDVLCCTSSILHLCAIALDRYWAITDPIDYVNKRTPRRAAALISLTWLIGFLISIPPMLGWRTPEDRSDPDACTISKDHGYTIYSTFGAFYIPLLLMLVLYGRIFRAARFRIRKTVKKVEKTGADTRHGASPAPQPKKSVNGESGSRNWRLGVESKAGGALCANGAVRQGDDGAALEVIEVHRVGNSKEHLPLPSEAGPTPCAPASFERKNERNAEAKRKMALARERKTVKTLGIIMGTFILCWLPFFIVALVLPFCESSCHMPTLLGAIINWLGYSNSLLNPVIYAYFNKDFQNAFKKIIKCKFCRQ

5-HT6 = molecular target: 5-HT6; parameters: method as in PMID 28441580, PMID 30530073, PMID 31229876; conditions: human receptor stably expressed in HEK-293; determined previously; read-out: Ki 5-HT6 [3H]-LSD; cited from earlier work
[6] = system: human embryonic kidney HEK-293 cell line; assay: Cytotoxicity, MTS assay in HEK-293
Method: (§2) The cells’ viability was determined by CellTiter 96® AQueous Non-Radioactive Cell Proliferation Assay (MTS), which was purchased from Promega (Madison, WI, USA). The absorbance was measured using a microplate reader EnSpire (PerkinElmer, Waltham, MA USA) at 490 nm. All compounds were tested in quadruplicate. For ATP-level measurement the cells were growth in similar way as in cytotoxicity assays. The CellTiter-Glo® Luminescent Cell Viability Assay and protocol was provided by Promega (Madison, WI, USA). The luminescence was measured after 2 hours-long cells’ exposition on tested compounds and the positive control CCCP by a microplate reader EnSpire (PerkinElmer, Waltham, MA USA) at luminescence mode. All compounds were tested in triplicate.

5-HT2A = molecular target: T4, 5-HT2A (Homo sapiens, UniProt P28223); assay: Radioligand binding assay, 5-HT2A ([3H]-ketanserin displacement); conditions: human receptor stably expressed in HEK-293
T4 construct: expressed in transfected cells; host or cells: HEK-293

[7] = Vogel conflict drinking test; conditions: rats
Method: It was consisted of polycarbonate cages (dimensions 26.5 cm × 15 cm × 42 cm), equipped with a grid floor made from stainless steel bars and drinking bottles containing tap water. Experimental chambers were connected to PC software by control chassis and electric shocks’ generator. On the first day of the experiment, the rats were adapted to the test chambers and drink water from the bottle spout for 10 min. Afterwards, the rats were returned to their home cages and were given 30 min free access to water followed by a 24-h water deprivation period. The adaptation session and water deprivation protocols were repeated on the second day of the experiment. On the third day the rats were placed again in the test chambers 60 min after investigated and reference compounds administration and were given free access to the drinking tube. Recording data started immediately after the first lick and rats were punished with an electric shock (0.5 mA, lasting 1 s) delivered to the metal drinking tube every 20 licks. The number of licks and the number of shocks received during a 5-min experimental session were recorded automatically.

CYP2D6 = molecular target: T5, CYP2D6 (Homo sapiens, UniProt P10635); assay: CYP2D6 P450-Glo assay; format: in vitro ADME; conditions: for CYP2D6 activity (inhibition): at 25 µM
T5 construct: purchased Promega (Madison, WI, USA)
Excerpt: (§1) The potential risk of drug-drug interactions (DDI) were examined by luminescence-based CYP3A4 and CYP2D6 P450-Glo™ assays (Promega®). These two CYP isoforms are responsible for metabolism of approximately half of all marketed drugs, and an influence on their activity may be a source of DDI danger. […] The luminescent CYP3A4 P450-Glo™ and CYP2D6 P450-Glo™ Promega® (Madison, WI, USA) were used for investigation of potential drug-drug interactions. All assays and protocols were described before.

hepatoma HepG2 cell line [8] = assay: ATP level in HepG2 (CellTiter-Glo); conditions: 2 h exposure, 10 µM
Method: as §2

[9] = Novel object recognition test (NORT), scopolamine-induced memory impairment; format: in vivo, rat; conditions: rats, 1 mg/kg; ANOVA NS
Excerpt: Taking into account the ability of various 5-HT6R antagonists to improve cognitive deficits, the NORT assay was used to study the influence of the investigated compounds on visual episodic memory. This test is based on the spontaneous exploration of novel and familiar objects. The administration of scopolamine reduces an ability to discriminate a novel object from a familiar one, and any compounds that have a protective effect against this deficit are regarded as potentially useful for treating cognitive deficits that are characteristic for Alzheimer’s disease and other dementia connected disorders.
Five days before the experiment, the rats were transferred to the laboratory, labeled and, thereafter, left to acclimate to the new environment. The animals were handling every five days before experiments to minimize the stress reaction. The protocol was adapted from the original work. The test session comprising of two trials separated by an inter-trial interval (ITI) of 1 h was carried out on the next day. […]
The animals explored the objects by looking, licking, sniffing or touching the object but not when leaning against, standing or sitting on the object. […] Exploration time of the objects was measured by blind experimenter. Based on exploration time (E) of two objects during T2, discrimination index (DI) was calculated according to the formula: DI = (EB − EA)/(EA + […]). […]

hepatoma HepG2 cell line [10] = assay: Hepatotoxicity, MTS assay in HepG2; conditions: 72 h; 100 µM
Method: as §2

5-HT7 [11] = molecular target: T2, 5-HT7; assay: Radioligand binding assay, 5-HT7 ([3H]-5-CT displacement); conditions: human receptor stably expressed in HEK-293
5-HT1A [12] = molecular target: T3, 5-HT1A; assay: Radioligand binding assay, 5-HT1A ([3H]-8-OH-DPAT displacement); conditions: human receptor stably expressed in HEK-293
CYP3A4 = molecular target: T6, CYP3A4 (Homo sapiens, UniProt P08684); assay: CYP3A4 P450-Glo assay; format: in vitro ADME; conditions: 0.01-25 μM; effect of 4 at 10 and 25 µM
T6 construct: purchased Promega (Madison, WI, USA)
Excerpt: as §1

D2L [13] = molecular target: T1, D2L; assay: Radioligand binding assay, D2L ([3H]-raclopride displacement); conditions: human receptor stably expressed in HEK-293
[14] = 72 h, only at 100 µM, 1 p < 0.001, 2 p < 0.05

Sequence of P-glycoprotein (Pgp) (P08183 whole entry): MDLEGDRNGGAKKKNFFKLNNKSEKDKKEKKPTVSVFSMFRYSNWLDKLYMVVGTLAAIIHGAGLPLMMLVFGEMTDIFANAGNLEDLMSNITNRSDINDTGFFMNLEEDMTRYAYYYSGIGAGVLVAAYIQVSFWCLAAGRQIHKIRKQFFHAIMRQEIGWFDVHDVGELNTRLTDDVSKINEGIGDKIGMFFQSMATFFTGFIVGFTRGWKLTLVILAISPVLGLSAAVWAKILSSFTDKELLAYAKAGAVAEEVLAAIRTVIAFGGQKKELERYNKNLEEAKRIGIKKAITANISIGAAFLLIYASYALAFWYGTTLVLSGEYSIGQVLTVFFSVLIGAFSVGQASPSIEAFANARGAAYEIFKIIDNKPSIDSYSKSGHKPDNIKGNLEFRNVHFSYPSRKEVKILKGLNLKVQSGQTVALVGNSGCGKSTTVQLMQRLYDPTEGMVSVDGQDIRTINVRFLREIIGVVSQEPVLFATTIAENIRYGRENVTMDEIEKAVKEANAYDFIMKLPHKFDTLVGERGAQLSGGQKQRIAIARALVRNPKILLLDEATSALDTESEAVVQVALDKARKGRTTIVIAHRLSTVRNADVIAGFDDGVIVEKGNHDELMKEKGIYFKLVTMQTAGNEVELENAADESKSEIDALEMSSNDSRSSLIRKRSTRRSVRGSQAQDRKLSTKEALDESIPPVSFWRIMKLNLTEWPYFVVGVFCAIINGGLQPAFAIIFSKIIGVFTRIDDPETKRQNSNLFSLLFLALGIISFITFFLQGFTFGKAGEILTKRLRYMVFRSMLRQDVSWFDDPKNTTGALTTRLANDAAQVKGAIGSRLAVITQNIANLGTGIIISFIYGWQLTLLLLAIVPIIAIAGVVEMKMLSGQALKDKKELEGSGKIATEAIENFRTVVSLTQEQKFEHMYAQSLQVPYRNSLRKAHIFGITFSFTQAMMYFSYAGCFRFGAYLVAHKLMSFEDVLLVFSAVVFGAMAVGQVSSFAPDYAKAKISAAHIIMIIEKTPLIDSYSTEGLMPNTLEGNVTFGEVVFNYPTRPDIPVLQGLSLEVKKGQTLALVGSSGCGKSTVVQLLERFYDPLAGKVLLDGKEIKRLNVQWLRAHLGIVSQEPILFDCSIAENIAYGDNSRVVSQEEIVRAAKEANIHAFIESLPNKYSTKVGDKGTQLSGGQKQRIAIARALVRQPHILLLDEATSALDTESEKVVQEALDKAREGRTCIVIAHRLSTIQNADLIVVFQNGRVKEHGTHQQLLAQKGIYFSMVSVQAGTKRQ
T1 sequence (P14416 whole entry): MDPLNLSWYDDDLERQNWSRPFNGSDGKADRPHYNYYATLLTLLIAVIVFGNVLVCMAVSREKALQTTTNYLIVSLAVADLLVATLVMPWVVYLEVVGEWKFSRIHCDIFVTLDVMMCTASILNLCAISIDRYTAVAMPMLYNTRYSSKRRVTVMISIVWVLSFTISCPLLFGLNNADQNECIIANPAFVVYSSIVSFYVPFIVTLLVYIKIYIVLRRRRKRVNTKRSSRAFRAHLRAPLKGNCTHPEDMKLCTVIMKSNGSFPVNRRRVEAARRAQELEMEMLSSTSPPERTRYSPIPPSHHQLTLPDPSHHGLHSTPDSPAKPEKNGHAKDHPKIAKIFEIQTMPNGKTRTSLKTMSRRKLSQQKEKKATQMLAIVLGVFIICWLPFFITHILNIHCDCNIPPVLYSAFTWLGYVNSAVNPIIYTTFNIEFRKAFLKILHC
T5 sequence (P10635 whole entry): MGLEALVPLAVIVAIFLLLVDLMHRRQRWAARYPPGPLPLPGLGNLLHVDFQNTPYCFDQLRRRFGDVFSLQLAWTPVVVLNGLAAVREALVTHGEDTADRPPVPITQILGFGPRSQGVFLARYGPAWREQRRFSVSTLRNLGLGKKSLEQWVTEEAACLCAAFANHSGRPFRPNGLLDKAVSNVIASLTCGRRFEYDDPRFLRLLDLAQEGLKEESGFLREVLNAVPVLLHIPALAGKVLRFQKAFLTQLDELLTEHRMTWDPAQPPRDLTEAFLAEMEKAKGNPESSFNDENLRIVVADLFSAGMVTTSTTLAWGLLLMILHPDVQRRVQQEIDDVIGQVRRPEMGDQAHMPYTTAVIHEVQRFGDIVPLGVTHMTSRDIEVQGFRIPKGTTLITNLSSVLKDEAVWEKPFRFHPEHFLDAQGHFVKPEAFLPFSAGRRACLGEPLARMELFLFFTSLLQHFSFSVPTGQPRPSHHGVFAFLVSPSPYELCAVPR
T4 sequence (P28223 whole entry): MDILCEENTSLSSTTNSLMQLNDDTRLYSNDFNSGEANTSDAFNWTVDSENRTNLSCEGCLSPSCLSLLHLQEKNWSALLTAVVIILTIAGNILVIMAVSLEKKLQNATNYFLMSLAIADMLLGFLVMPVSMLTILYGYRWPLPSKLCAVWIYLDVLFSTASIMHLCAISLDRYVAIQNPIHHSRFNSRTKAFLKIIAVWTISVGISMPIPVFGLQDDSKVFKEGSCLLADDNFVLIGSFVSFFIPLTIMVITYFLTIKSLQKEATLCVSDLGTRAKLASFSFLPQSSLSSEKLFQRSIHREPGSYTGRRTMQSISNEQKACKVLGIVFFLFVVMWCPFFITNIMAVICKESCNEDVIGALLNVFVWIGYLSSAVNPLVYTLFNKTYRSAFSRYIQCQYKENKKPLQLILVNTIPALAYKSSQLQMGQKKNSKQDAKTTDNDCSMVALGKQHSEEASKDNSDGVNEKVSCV
T2 sequence (P34969 1-432): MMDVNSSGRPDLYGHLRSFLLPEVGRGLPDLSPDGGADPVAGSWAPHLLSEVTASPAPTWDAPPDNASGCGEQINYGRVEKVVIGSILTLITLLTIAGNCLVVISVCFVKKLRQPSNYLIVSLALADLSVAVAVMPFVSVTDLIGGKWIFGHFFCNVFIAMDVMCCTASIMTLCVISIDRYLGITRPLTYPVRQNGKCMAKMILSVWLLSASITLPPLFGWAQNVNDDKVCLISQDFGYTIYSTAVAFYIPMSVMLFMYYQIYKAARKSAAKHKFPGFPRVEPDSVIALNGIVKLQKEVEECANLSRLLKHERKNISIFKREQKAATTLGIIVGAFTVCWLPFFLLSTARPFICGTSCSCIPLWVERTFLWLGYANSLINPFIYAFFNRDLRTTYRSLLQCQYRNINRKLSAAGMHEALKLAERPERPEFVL
T6 sequence (P08684 whole entry): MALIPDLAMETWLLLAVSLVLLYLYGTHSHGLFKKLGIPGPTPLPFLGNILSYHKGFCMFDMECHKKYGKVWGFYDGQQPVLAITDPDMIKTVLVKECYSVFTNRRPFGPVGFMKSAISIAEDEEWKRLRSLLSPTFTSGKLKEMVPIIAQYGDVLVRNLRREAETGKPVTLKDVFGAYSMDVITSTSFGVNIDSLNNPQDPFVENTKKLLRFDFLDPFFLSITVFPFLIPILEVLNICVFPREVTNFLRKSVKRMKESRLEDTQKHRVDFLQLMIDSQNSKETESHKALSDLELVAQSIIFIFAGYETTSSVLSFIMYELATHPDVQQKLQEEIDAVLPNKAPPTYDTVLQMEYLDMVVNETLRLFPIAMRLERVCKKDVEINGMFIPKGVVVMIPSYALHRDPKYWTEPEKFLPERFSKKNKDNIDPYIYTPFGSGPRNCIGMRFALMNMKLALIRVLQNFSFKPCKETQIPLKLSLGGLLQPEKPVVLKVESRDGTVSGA

Row | SMILES | Clint [1] [mL/min/kg] | half-life at 50 µM [1] [h] | Pgp basal activity (P-glycoprotein (Pgp)) | Papp at 5 h, 200 µM [4] [×10⁻⁶ cm/s] | Ki (5-HT6) [nM] | Ki (5-HT2A) [nM] | anxiolytic-like activity in Vogel conflict drinking test ([7]; i.p. 60 min before test) | other results
1 | CN1CCN(c2nc(N)nc(Cc3cccc(Cl)c3)n2)CC1 [Compound 1] | 7.56 | 1.38 | ~ 135% | 23.6 ± 2.14 | 28 | 272 | – | Ki (D2L [2]): 838 nM; Ki (5-HT7 [3]): 8710 nM; Ki (5-HT1A [5]): 4950 nM; HEK-293 cells viability [6, 14]: significant effect
2 | COc1ccc(S(=O)(=O)Nc2cc(Cl)cc(Cl)c2OC)cc1N1CCNCC1 [SB-399885, N-[3,5-dichloro-2-(methoxy)-phenyl]-4-(methoxy)-1-(piperazinyl)benzenesulfonamide, reference compound] | – | – | – | – | – | – | anxiolytic-like activity was shown | anxiolytic-like activity in Vogel conflict drinking test ([7]; 1 and 3 mg/kg i.p.): exerted anxiolytic-like activity
3 | Cc1cccc(Cc2nc(N)nc(N3CCN(C)CC3)n2)c1 [Compound 2] | 3.96 | 2.63 | – | 19.9 ± 2.68 | – | 329 | – | effect on Pgp basal activity (P-glycoprotein (Pgp); p < 0.001): inhibited significantly; Ki (D2L [2]): 1190 nM; Ki (5-HT7 [3]): 16200 nM; CYP2D6 activity (induction) (CYP2D6; at 10 and 25 µM): ~ 148 % of the control activity; Ki (5-HT1A [5]): 10200 nM; HEK-293 cells viability [6, 14]: significant effect
4 | CN1CCN(c2nc(N)nc(Cc3c[nH]c4ccccc34)n2)CC1 [Compound 3, 4-((1H-indol-3-yl)methyl)-6-(4-methylpiperazin-1-yl)-1,3,5-triazin-2-amine] | 2.34 | 4.45 | ~ 135% | 17.9 ± 5.76 | 22 | 1760 | anxiolytic-like activity was shown | increase of the number of shocks ([7]; 1 mg/kg i.p., p < 0.05): about 82%; CYP2D6 activity (inhibition) (CYP2D6): ~ 75 % of the control activity
5 | N#CC(C#N)=NNc1cccc(Cl)c1 [CCCP, carbonyl cyanide 3-chlorophenylhydrazone] | – | – | – | – | – | – | – | ATP level in HepG2 (hepatoma HepG2 cell line [8]): ~ 33 % of control
6 | CCN(C)C(=O)Oc1cccc([C@H](C)N(C)C)c1 [rivastigmine] | – | – | – | – | – | – | – | effect on scopolamine induced learning deficits in NORT [9]: similar, but lower pro-cognitive effects
7 | Cc1ccc(C(C)C)c(OCc2nc(N)nc(N3CCN(C)CC3)n2)c1 [Compound 4, 4-((2-isopropyl-5-methylphenoxy)methyl)-6-(4-methylpiperazin-1-yl)-1,3,5-triazin-2-amine] | 6.30 | 1.65 | ~ 135% | 12.3 ± 1.98 | 11 | 430 | anxiolytic-like activity was shown | HepG2 viability (hepatotoxic effect) (hepatoma HepG2 cell line [10]): hepatotoxic effect; Ki (5-HT7 [11]): 12000 nM; Ki (5-HT1A [12]): 12500 nM; influence on CYP3A4 activity (CYP3A4): slight induction effect; increase of the number of licks ([7]; 0.3 mg/kg i.p., p < 0.0001): about 76%; CYP2D6 activity (inhibition) (CYP2D6): ~ 75 % of the control activity; Ki (D2L [13]): 1090 nM; lowest toxic dose vs 5-HT6R Ki ([6]; 10 μM vs Ki = 11 nM): ~ 1000 fold; HEK-293 cells viability ([6]; 72 h, at 10 and 100 µM, p < 0.001): statistically significant decrease in cells viability; lowest toxic dose ([6]; cytotoxicity, 72 h): 10 µM
